Laboratory results: patent publication US20250368666A1, “INDAZOLE COMPOUNDS” (TYRA BIOSCIENCES, INC., priority 2022, published 2025)
Structures can show the parent of a compound that is named as a salt.

How the values were obtained:
[1] = test system: RT112/84 cell line (FGFR3-fusion); assay: Cancer cell line cell viability assay (Cell Titer-Glo), 72 hr; format: cell-based; conditions: Homo sapiens, RT112/84, RT112/84 cell line (FGFR3-fusion)
Summary of the method: (§1)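 5,000-20,000 cells/well o/n; cpd 9-pt 4x dil from 3 μM, n=3; 37° C/5% CO2; CTG 2.0 lumi; % DMSO ctrl; 4PL IC50.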

[2] = test system: KATO-III cell line (FGFR2 amplification); assay: as above; format: cell-based; conditions: Homo sapiens, KATO III
Summary of the method: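 Luminescent ATP read-out (Cell Titer-Glo 2.0) after compound exposure, normalised to DMSO-only wells. Dosing: 9 concentrations, 4-fold steps, top 3 μM, triplicates. IC50 derived by log(inhibitor) vs. response 4-parameter fit.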

[3] = test system: KG-1 cell line (FGFR 1-fusion); assay: as above; format: cell-based; conditions: Homo sapiens, KG-1, KG-1 cell line (FGFR1-fusion)
Summary of the method: as §1

[4] = molecular target: T1, FGFR4 (Homo sapiens, UniProt P22455); assay: Kinase binding assay (kinase-tagged T7 phage, affinity beads, qPCR), Kd; conditions: read-out: FGFR4 (Kd nM)
T1 construct: made in house; host or cells: E. coli (BL21-derived), T7 phage
Summary of the method: (§2)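 Kd obtained by Levenberg–Marquardt Hill-equation fit (slope −1) to qPCR-measured kinase retained on ligand-coated streptavidin beads.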

[5] = molecular target: T2, FGFR1 (Homo sapiens, UniProt P11362); assay: as above; conditions: read-out: FGFR1 (Kd nM)
T2 construct: made in house; host or cells: E. coli (BL21-derived), T7 phage
Summary of the method: as §2

[6] = molecular target: T3, FGFR2 (Homo sapiens, UniProt P21802); assay: as above; conditions: read-out: FGFR2 (Kd nM)
T3 construct: made in house; host or cells: E. coli (BL21-derived), T7 phage
Summary of the method: as §2

[7] = molecular target: T4, FGFR3 (Homo sapiens, UniProt P22607); assay: as above; conditions: read-out: FGFR3 (Kd nM)
T4 construct: made in house; host or cells: E. coli (BL21-derived), T7 phage
Summary of the method: as §2

[8] = molecular target: T5, FGFR3 (V555M) (Homo sapiens, UniProt P22607, V555M); assay: as above; conditions: V555M mutant; read-out: FGFR3 (V555M) (Kd nM)
T5 construct: made in house; host or cells: E. coli (BL21-derived), T7 phage
Summary of the method: as §2

T1 sequence (P22455 22-802): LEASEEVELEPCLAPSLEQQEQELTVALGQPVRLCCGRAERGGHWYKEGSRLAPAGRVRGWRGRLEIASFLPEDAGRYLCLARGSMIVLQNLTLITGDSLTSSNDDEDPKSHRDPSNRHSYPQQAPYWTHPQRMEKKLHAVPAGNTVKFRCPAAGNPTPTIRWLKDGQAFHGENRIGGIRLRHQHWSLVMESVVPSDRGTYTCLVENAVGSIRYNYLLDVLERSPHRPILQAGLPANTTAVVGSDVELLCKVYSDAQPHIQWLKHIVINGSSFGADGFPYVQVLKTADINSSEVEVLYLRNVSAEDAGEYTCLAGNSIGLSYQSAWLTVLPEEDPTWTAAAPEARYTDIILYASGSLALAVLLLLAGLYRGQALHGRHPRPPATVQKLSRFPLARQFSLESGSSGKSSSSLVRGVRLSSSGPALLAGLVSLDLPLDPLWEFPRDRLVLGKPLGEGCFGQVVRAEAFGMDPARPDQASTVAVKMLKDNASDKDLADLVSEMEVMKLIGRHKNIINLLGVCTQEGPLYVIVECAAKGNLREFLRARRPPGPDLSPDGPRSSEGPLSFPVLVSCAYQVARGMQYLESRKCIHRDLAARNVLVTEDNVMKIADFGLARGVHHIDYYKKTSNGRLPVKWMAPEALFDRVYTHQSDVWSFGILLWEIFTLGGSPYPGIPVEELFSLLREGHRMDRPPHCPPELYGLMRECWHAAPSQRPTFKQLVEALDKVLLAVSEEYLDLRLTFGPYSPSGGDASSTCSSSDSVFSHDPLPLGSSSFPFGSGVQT
T4 sequence (P22607 23-806): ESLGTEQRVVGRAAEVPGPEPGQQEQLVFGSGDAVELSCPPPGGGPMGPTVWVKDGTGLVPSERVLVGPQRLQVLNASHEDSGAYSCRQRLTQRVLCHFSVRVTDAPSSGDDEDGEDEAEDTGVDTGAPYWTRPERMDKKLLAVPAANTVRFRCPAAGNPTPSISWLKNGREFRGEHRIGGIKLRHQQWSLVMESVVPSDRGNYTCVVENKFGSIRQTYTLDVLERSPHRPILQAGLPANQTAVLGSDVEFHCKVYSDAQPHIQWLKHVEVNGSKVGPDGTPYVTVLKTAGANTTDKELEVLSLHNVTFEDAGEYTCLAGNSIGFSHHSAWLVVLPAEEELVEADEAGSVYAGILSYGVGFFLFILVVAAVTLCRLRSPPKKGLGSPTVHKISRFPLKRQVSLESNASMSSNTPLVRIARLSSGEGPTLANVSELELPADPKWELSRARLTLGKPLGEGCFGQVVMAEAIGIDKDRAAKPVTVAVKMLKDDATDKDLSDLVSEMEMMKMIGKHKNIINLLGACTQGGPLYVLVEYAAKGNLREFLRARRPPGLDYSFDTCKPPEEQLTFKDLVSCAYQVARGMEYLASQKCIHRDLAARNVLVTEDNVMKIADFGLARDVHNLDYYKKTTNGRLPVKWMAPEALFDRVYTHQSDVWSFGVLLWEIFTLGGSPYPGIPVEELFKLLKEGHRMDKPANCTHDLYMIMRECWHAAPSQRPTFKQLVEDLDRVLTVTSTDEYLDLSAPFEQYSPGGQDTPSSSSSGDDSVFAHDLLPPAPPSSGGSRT
T2 sequence (P11362 22-822): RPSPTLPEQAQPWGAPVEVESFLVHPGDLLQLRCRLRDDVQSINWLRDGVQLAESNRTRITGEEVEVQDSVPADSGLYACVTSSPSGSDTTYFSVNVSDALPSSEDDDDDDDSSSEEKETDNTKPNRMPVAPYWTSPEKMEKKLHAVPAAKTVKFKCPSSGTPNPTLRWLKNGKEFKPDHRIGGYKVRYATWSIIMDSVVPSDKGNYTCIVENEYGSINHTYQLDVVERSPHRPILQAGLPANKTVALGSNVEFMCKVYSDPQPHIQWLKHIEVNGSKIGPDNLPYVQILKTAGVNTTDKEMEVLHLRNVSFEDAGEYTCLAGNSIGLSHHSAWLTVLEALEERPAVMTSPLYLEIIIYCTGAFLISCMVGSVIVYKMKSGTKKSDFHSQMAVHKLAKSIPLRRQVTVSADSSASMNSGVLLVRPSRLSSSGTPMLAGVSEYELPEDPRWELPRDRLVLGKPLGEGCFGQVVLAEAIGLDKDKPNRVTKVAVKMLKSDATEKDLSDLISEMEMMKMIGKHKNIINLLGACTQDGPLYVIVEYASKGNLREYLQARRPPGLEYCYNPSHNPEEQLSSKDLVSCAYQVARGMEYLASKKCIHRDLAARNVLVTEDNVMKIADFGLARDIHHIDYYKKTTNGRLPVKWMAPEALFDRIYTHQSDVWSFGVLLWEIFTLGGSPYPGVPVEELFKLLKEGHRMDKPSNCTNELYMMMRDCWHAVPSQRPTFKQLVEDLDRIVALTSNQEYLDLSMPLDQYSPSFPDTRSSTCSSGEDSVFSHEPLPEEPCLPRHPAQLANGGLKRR
T5 sequence (P22607 23-806 V555M): as the sequence (P22607 23-806) above, with V533M counted along it
T3 sequence (P21802 22-821): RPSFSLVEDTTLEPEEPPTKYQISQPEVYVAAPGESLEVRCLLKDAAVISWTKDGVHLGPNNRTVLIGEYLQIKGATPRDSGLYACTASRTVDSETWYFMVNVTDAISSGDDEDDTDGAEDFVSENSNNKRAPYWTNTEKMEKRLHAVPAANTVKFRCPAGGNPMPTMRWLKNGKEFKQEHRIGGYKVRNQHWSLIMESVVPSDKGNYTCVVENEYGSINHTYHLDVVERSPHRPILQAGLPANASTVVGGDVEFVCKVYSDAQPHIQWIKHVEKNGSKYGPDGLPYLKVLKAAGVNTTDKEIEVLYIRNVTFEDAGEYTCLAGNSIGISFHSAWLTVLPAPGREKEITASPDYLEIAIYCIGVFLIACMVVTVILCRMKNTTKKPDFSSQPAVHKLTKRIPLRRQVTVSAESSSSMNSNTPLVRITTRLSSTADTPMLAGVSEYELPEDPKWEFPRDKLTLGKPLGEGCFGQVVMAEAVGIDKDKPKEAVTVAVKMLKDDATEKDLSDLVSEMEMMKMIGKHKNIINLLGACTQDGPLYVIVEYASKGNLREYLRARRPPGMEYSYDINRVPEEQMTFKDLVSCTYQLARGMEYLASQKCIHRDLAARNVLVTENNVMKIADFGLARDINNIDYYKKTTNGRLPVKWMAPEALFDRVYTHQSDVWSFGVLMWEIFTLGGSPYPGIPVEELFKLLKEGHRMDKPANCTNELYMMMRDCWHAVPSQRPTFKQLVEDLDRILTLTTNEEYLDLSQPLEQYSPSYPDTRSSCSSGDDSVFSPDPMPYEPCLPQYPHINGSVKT

| Structure (SMILES) | IC50 [1] | IC50 [2] | IC50 [3] | Kd [4] | Kd [5] | Kd [6] | Kd [7] | Kd [8] |
| --- | --- | --- | --- | --- | --- | --- | --- | --- |
| C[C@@H](Oc1ccc2[nH]nc(-c3cnc(N4CC(C)(N5CC6CC(C5)O6)C4)c(F)c3)c2c1)c1c(Cl)cncc1Cl [Example 217, 3-(1-(5-(5-((R)-1-(3,5-dichloropyridin-4-yl)ethoxy)-1H-indazol-3-yl)-3-fluoropyridin-2-yl)-3-methylazetidin-3-yl)-6-oxa-3-aza-bicyclo[3.1.1]hep-tane] | 0.1 to 50 nM | 0.1 to 50 nM | 50 to 200 nM | 1 to 50 nM | 1 to 50 nM | 1 to 50 nM | 1 to 50 nM | 1 to 50 nM |
| C[C@@H](Oc1ccc2[nH]nc(-c3cnc(N4CC(C)(N5C[C@@H]6C[C@H]5CO6)C4)c(F)c3)c2c1)c1c(Cl)cncc1Cl [Example 218, (1S,4S)-5-(1-(5-(5-((R)-1-(3,5-dichloropyridin-4-yl)ethoxy)-1H-indazol-3-yl)-3-fluoropyridin-2-yl)-3-methylazetidin-3-yl)-2-oxa-5-aza-bicyclo[2.2.1]hep-tane] | 0.1 to 50 nM | 0.1 to 50 nM | 0.1 to 50 nM | 1 to 50 nM | 1 to 50 nM | 1 to 50 nM | 1 to 50 nM | 1 to 50 nM |
| C[C@@H](Oc1ccc2[nH]nc(-c3ccc(N4CC(C)(N5CC6CC(C5)O6)C4)nc3)c2c1)c1c(Cl)cncc1Cl [Example 222, 3-(1-(5-(5-((R)-1-(3,5-dichloropyridin-4-yl)ethoxy)-1H-indazol-3-yl)pyridin-2-yl)-3-methylazetidin-3-yl)-6-oxa-3-aza-bicyclo[3.1.1]hep-tane] | 0.1 to 50 nM | 0.1 to 50 nM | 0.1 to 50 nM | 1 to 50 nM | 1 to 50 nM | 1 to 50 nM | 1 to 50 nM | 1 to 50 nM |
| CCNC1(C)CN(c2ncc(-c3n[nH]c4cc(OC)c(O[C@H](C)c5c(Cl)cncc5Cl)cc34)cc2C#N)C1 [Example 341, (R)-5-(5-(1-(3,5-Dichloropyridin-4-yl)ethoxy)-6-methoxy-1H-indazol-3-yl)-2-(3-(ethylamino)-3-methylazetidin-1-yl)nicotinonitrile HCl] | 0.1 to 50 nM | 50 to 200 nM | 0.1 to 50 nM | 1 to 50 nM | 1 to 50 nM | 1 to 50 nM | 1 to 50 nM | 1 to 50 nM |

Continued, values first:

| IC50 [1] | IC50 [2] | IC50 [3] | Kd [4] | Kd [5] | Kd [6] | Kd [7] | Kd [8] | Structure (SMILES) |
| --- | --- | --- | --- | --- | --- | --- | --- | --- |
| 0.1 to 50 nM | 50 to 200 nM | 50 to 200 nM | 1 to 50 nM | 1 to 50 nM | 1 to 50 nM | 1 to 50 nM | 1 to 50 nM | C[C@H]1CN(C2(C)CN(c3ncc(-c4n[nH]c5ccc(O[C@H](C)c6c(Cl)cncc6Cl)cc45)cc3F)C2)CCO1 [Example 216, (S)-4-(1-(5-(5-((R)-1-(3,5-dichloropyridin-4-yl)ethoxy)-1H-indazol-3-yl)-3-fluoropyridin-2-yl)-3-methylazetidin-3-yl)-2-methylmorpholine] |
| 0.1 to 50 nM | 0.1 to 50 nM | 50 to 200 nM | 1 to 50 nM | 1 to 50 nM | 1 to 50 nM | 1 to 50 nM | 1 to 50 nM | C[C@@H](Oc1ccc2[nH]nc(-c3cnc(N4CC(C)(N5C[C@H]6C[C@@H]5CO6)C4)c(F)c3)c2c1)c1c(Cl)cncc1Cl [Example 223, (1R,4R)-5-(1-(5-(5-((R)-1-(3,5-dichloropyridin-4-yl)ethoxy)-1H-indazol-3-yl)-3-fluoropyridin-2-yl)-3-methylazetidin-3-yl)-2-oxa-5-aza-bicyclo[2.2.1]hep-tane] |
| 0.1 to 50 nM | 0.1 to 50 nM | 50 to 200 nM | 1 to 50 nM | 1 to 50 nM | 1 to 50 nM | 1 to 50 nM | 1 to 50 nM | C=CCNC1(C)CN(c2ccc(-c3n[nH]c4ccc(O[C@H](C)c5c(Cl)cncc5Cl)cc34)cn2)C1 [Example 232, (R)-N-ally1-1-(5-(5-(1-(3,5-dichloropyridin-4-yl)ethoxy)-1H-indazol-3-yl)pyridin-2-yl)-3-methylazetidin-3-amine] |
